Measurements published in patent US9982017B2, “Synthetic apelin mimetics for the treatment of heart failure” (priority 2012, dated 2018).
Where a SMILES comes first, the peptide text is derived from it. Bridges are numbered along the chain shown (N, C = ends). [ ]: non-standard residue; d: D form. The star is where a group is joined. Myristoyl = CCCCCCCCCCCCCC(=O)*; pGlu = O=C1CC[C@@H](C(=O)O)N1; NHPhenethyl = c1ccc(CCN*)cc1; Lauroyl = CCCCCCCCCCCC(=O)*; d(hCys) = N[C@H](CCS)C(=O)O; Nle = CCCC[C@H](N)C(=O)O; Orn = NCCC[C@H](N)C(=O)O; Api = NC1(C(=O)O)CCNCC1; AEEA = NCCOCCOCC(=O)O; Aib = CC(C)(N)C(=O)O

Test: in vitro
Conditions: rat, not told, Surrogate activity-based Plasma stability t½

Row | Compound | half-life
1 | CCCC[C@@H]1NC(=O)[C@@H]2CCCN2C(=O)CNC(=O)[C@H](CCCCN)NC(=O)C(C)(C)NC(=O)[C@@H](NC(=O)[C@H](CC(C)C)NC(=O)[C@H](CCCNC(=N)N)NC(=O)[C@@H]2CCCN2C(=O)[C@H](CCCNC(=N)N)NC(=O)[C@@H]2CCC(=O)N2)CSSC[C@@H](C(=O)N[C@@H](Cc2ccccc2)C(=O)O)NC1=O [Example 9, pE-R-P-R-L-C-Aib-K-G-P-Nle-C-F-OH] ([pGlu]RPRLC[Aib]KGP[Nle]CF-OH; disulfide 6-12) | > 1000 min
2 | CCCCCCCCCCCCCC(=O)NCCOCCOCC(=O)NCCOCCOCC(=O)N[C@@H](CCC(N)=O)C(=O)N[C@@H](CCCNC(=N)N)C(=O)N1CCC[C@H]1C(=O)N[C@@H](CCCNC(=N)N)C(=O)N[C@@H](CC(C)C)C(=O)N[C@H]1CSSC[C@@H](C(=O)N[C@H](Cc2ccccc2)C(=O)O)NC(=O)[C@H](CCCC)NC(=O)[C@@H]2CCCN2C(=O)CNC(=O)[C@H](CCCCN)NC(=O)[C@H](Cc2c[nH]cn2)NC1=O [Example 58, Myristoyl-O2Oc-O2Oc-Q-R-P-R-L-C-H-K-G-P-Nle-C-f-OH] ({Myristoyl-AEEA-AEEA}-QRPRLCHKGP[Nle]C[dF]-OH; disulfide 6-12) | > 1000 min
3 | CCCCCCCCCCCC(=O)NCCOCCOCC(=O)N[C@@H](CCC(N)=O)C(=O)N[C@@H](CCCNC(=N)N)C(=O)N1CCC[C@H]1C(=O)N[C@@H](CCCNC(=N)N)C(=O)N[C@@H](CC(C)C)C(=O)N[C@H]1CSSC[C@@H](C(=O)N[C@@H](Cc2ccccc2)C(=O)O)NC(=O)[C@H](CCCC)NC(=O)[C@@H]2CCCN2C(=O)CNC(=O)[C@H](CCCCN)NC(=O)[C@H](Cc2c[nH]cn2)NC1=O [Example 25, Lauroyl-O2Oc-Q-R-P-R-L-C-H-K-G-P-Nle-C-F-OH] ({Lauroyl-AEEA}-QRPRLCHKGP[Nle]CF-OH; disulfide 6-12) | > 1000 min
4 | CCCC[C@@H]1NC(=O)[C@@H]2CCCN2C(=O)CNC(=O)[C@H](CCCCN)NC(=O)[C@H](Cc2c[nH]cn2)NC(=O)[C@H](NC(=O)[C@H](CC(C)C)NC(=O)[C@H](CCCNC(=N)N)NC(=O)[C@@H]2CCCN2C(=O)[C@H](CCCNC(=N)N)NC(=O)[C@@H]2CCC(=O)N2)CCSSCC[C@H](C(=O)N[C@@H](Cc2ccccc2)C(=O)O)NC1=O [Example 55, pE-R-P-R-L-(D-hC)-H-K-G-P-Nle-(D-hC)-F-OH] ([pGlu]RPRL[d(hCys)]HKGP[Nle][d(hCys)]F-OH; disulfide 6-12) | > 1000 min
5 | CCCC[C@@H]1NC(=O)[C@@H]2CCCN2C(=O)[C@H](CCCNC(=N)N)NC(=O)[C@H](CCCCN)NC(=O)[C@H](Cc2c[nH]cn2)NC(=O)[C@@H](NC(=O)[C@H](CC(C)C)NC(=O)[C@H](CCCNC(=N)N)NC(=O)[C@@H]2CCCN2C(=O)[C@H](CCCNC(=N)N)NC(=O)[C@@H]2CCC(=O)N2)CSSC[C@@H](C(=O)N[C@@H](Cc2ccccc2)C(=O)O)NC1=O [Example 45, pE-R-P-R-L-C-H-K-R-P-Nle-C-F-OH] ([pGlu]RPRLCHKRP[Nle]CF-OH; disulfide 6-12) | 167 min
6 | CCCC[C@@H]1NC(=O)[C@@H]2CCCN2C(=O)CNC(=O)C2(CCNCC2)NC(=O)[C@H](Cc2c[nH]cn2)NC(=O)[C@@H](NC(=O)[C@H](CC(C)C)NC(=O)[C@H](CCCNC(=N)N)NC(=O)[C@@H]2CCCN2C(=O)[C@H](CCCNC(=N)N)NC(=O)[C@@H]2CCC(=O)N2)CSSC[C@@H](C(=O)N[C@@H](Cc2ccccc2)C(=O)O)NC1=O [Example 21, pE-R-P-R-L-C-H-(4-NH-Isn)-G-P-Nle-C-F-OH] ([pGlu]RPRLCH[Api]GP[Nle]CF-OH; disulfide 6-12) | 640 min
7 | CCCC[C@@H]1NC(=O)[C@@H]2CCCN2C(=O)CNC(=O)[C@H](CCCCN)NC(=O)[C@H](Cc2c[nH]cn2)NC(=O)[C@@H](NC(=O)[C@H](CC(C)C)NC(=O)[C@H](CCCNC(=N)N)NC(=O)[C@@H]2CCCN2C(=O)[C@H](CCCNC(=N)N)NC(=O)[C@@H]2CCC(=O)N2)CSSC[C@@H](C(=O)N[C@@H](Cc2ccccc2)C(N)=O)NC1=O [Example 62, pE-R-P-R-L-C-H-K-G-P-Nle-C-F-NH2] ([pGlu]RPRLCHKGP[Nle]CF-NH2; disulfide 6-12) | > 1000 min
8 | CCCC[C@@H]1NC(=O)[C@@H]2CCCN2C(=O)CNC(=O)[C@H](CCCCN)NC(=O)[C@H](Cc2c[nH]cn2)NC(=O)[C@@H](NC(=O)[C@H](CC(C)C)NC(=O)[C@H](CCCNC(=N)N)NC(=O)[C@@H]2CCCN2C(=O)[C@H](CCC(=O)O)NC(=O)[C@@H]2CCC(=O)N2)CSSC[C@@H](C(=O)N[C@@H](Cc2ccccc2)C(=O)O)NC1=O [Example 32, pE-E-P-R-L-C-H-K-G-P-Nle-C-F-OH] ([pGlu]EPRLCHKGP[Nle]CF-OH; disulfide 6-12) | > 1000 min
9 | CCCC[C@@H]1NC(=O)[C@@H]2CCCN2C(=O)CNC(=O)[C@H](Cc2ccccc2)NC(=O)[C@H](Cc2c[nH]cn2)NC(=O)[C@@H](NC(=O)[C@H](CC(C)C)NC(=O)[C@H](CCCNC(=N)N)NC(=O)[C@@H]2CCCN2C(=O)[C@H](CCCNC(=N)N)NC(=O)[C@@H]2CCC(=O)N2)CCCCNC(=O)CC[C@@H](C(=O)NCCc2ccccc2)NC1=O [Example 2, pE-R-P-R-L-K-H-F-G-P-Nle-E-Phenethylamine] ([pGlu]RPRLKHFGP[Nle]E-NHPhenethyl; lactam 6-12) | 27.1 min
10 | CCCC[C@@H]1NC(=O)[C@@H]2CCCN2C(=O)CNC(=O)[C@H](CCCCN)NC(=O)[C@H](Cc2c[nH]cn2)NC(=O)[C@@H](NC(=O)[C@H](CC(C)C)NC(=O)[C@H](CCC(=O)O)NC(=O)[C@@H]2CCCN2C(=O)[C@H](CCCNC(=N)N)NC(=O)[C@@H]2CCC(=O)N2)CSSC[C@@H](C(=O)N[C@@H](Cc2ccccc2)C(=O)O)NC1=O [Example 40, pE-R-P-E-L-C-H-K-G-P-Nle-C-F-OH] ([pGlu]RPELCHKGP[Nle]CF-OH; disulfide 6-12) | > 1000 min
11 | CCCC[C@@H]1NC(=O)[C@@H]2CCCN2C(=O)CNC(=O)[C@H](CCCCN)NC(=O)[C@H](Cc2ccccc2)NC(=O)[C@@H](NC(=O)[C@H](CC(C)C)NC(=O)[C@H](CCCNC(=N)N)NC(=O)[C@@H]2CCCN2C(=O)[C@H](CCCNC(=N)N)NC(=O)[C@@H]2CCC(=O)N2)CCCCNC(=O)[C@@H](Cc2ccccc2)NC1=O [Example 6, pE-R-P-R-L-K-F-K-G-P-Nle-f] ([pGlu]RPRLKFKGP[Nle][dF]; lactam 6-C) | 117 min
12 | CCCC[C@@H]1NC(=O)[C@@H]2CCCN2C(=O)CNC(=O)[C@H](CCCCN)NC(=O)[C@H](Cc2c[nH]cn2)NC(=O)[C@@H](NC(=O)[C@H](CC(C)C)NC(=O)[C@H](CCCNC(=N)N)NC(=O)[C@H](CCCCN)NC(=O)[C@H](CCCNC(=N)N)NC(=O)[C@@H]2CCC(=O)N2)CSSC[C@@H](C(=O)N[C@@H](Cc2ccccc2)C(=O)O)NC1=O [Example 34, pE-R-K-R-L-C-H-K-G-P-Nle-C-F-OH] ([pGlu]RKRLCHKGP[Nle]CF-OH; disulfide 6-12) | 505 min
13 | CCCC[C@@H]1NC(=O)[C@@H]2CCCN2C(=O)CNC(=O)[C@H](CCCCN)NC(=O)[C@H](Cc2c[nH]cn2)NC(=O)[C@H](NC(=O)[C@H](CC(C)C)NC(=O)[C@H](CCCNC(=N)N)NC(=O)[C@@H]2CCCN2C(=O)[C@H](CCCNC(=N)N)NC(=O)[C@@H]2CCC(=O)N2)CSSC[C@H](C(=O)N[C@@H](Cc2ccccc2)C(=O)O)NC1=O [Example 57, pE-R-P-R-L-c-H-K-G-P-Nle-c-F-OH] ([pGlu]RPRL[dC]HKGP[Nle][dC]F-OH; disulfide 6-12) | > 1000 min
14 | CCCCCCCCCCCCCC(=O)NCCOCCOCC(=O)NCCOCCOCC(=O)NCCOCCOCC(=O)N[C@@H](CCC(N)=O)C(=O)N[C@@H](CCCNC(=N)N)C(=O)N1CCC[C@H]1C(=O)N[C@@H](CCCNC(=N)N)C(=O)N[C@@H](CC(C)C)C(=O)N[C@H]1CSSC[C@@H](C(=O)N[C@H](Cc2ccccc2)C(=O)O)NC(=O)[C@H](CCCC)NC(=O)[C@@H]2CCCN2C(=O)CNC(=O)[C@H](CCCCN)NC(=O)[C@H](Cc2c[nH]cn2)NC1=O [Example 59, Myristoyl-O2Oc-O2Oc-O2Oc-Q-R-P-R-L-C-H-K-G-P-Nle-C-f-OH] ({Myristoyl-AEEA-AEEA-AEEA}-QRPRLCHKGP[Nle]C[dF]-OH; disulfide 6-12) | > 1000 min
15 | CCCC[C@@H]1NC(=O)[C@@H]2CCCN2C(=O)CNC(=O)[C@H](Cc2ccccc2)NC(=O)[C@H](Cc2c[nH]cn2)NC(=O)[C@@H](NC(=O)[C@H](CC(C)C)NC(=O)[C@H](CCCNC(=N)N)NC(=O)[C@@H]2CCCN2C(=O)[C@H](CCCNC(=N)N)NC(=O)[C@@H]2CCC(=O)N2)CCCNC(=O)C[C@@H](C(=O)NCCc2ccccc2)NC1=O [Example 3, pE-R-P-R-L-Orn-H-F-G-P-Nle-D-Phenethylamine] ([pGlu]RPRL[Orn]HFGP[Nle]D-NHPhenethyl; lactam 6-12) | 98 min
16 | CCCCCCCCCCCC(=O)NCCCC[C@@H]1NC(=O)[C@@H](NC(=O)[C@H](CC(C)C)NC(=O)[C@H](CCCNC(=N)N)NC(=O)[C@@H]2CCCN2C(=O)[C@H](CCCNC(=N)N)NC(=O)[C@@H]2CCC(=O)N2)CSSC[C@@H](C(=O)N[C@@H](Cc2ccccc2)C(=O)O)NC(=O)[C@H](CCCC)NC(=O)[C@@H]2CCCN2C(=O)CNC(=O)[C@H](CCCCN)NC1=O [Example 27, pE-R-P-R-L-C-K(Lauroyl)-K-G-P-Nle-C-F-OH] ([pGlu]RPRLCK(Lauroyl)KGP[Nle]CF-OH; disulfide 6-12) | > 1000 min
17 | CCCC[C@@H]1NC(=O)[C@@H]2CCCN2C(=O)CNC(=O)[C@H](CCCCN)NC(=O)[C@H](Cc2c[nH]cn2)NC(=O)[C@H](NC(=O)[C@H](CC(C)C)NC(=O)[C@H](CCCNC(=N)N)NC(=O)[C@@H]2CCCN2C(=O)[C@H](CCCNC(=N)N)NC(=O)[C@@H]2CCC(=O)N2)CSSC[C@@H](C(=O)N[C@@H](Cc2ccccc2)C(=O)O)NC1=O [Example 53, pE-R-P-R-L-c-H-K-G-P-Nle-C-F-OH] ([pGlu]RPRL[dC]HKGP[Nle]CF-OH; disulfide 6-12) | > 1000 min
18 | CCCC[C@@H]1NC(=O)[C@@H]2CCCN2C(=O)CNC(=O)[C@H](CCCCN)NC(=O)[C@H](Cc2c[nH]cn2)NC(=O)[C@@H](NC(=O)[C@H](CC(C)C)NC(=O)[C@H](CCCNC(=N)N)NC(=O)[C@H]2CCCN2C(=O)[C@H](CCCNC(=N)N)NC(=O)[C@@H]2CCC(=O)N2)CSSC[C@@H](C(=O)N[C@@H](Cc2ccccc2)C(=O)O)NC1=O [Example 33, pE-R-p-R-L-C-H-K-G-P-Nle-C-F-OH] ([pGlu]R[dP]RLCHKGP[Nle]CF-OH; disulfide 6-12) | > 1000 min
